Experimental data from PubChem BioAssay (NCI).
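Cells were grown in 96-well plates and exposed to each compound for 48 hours at five concentrations; endpoints were interpolated linearly between bracketing concentrations, or set to the highest concentration if not reached. GI50: concentration for 50% inhibition of growth. TGI denotes the concentration required for complete inhibition of growth.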

Experiments:
Test in all cases: NCI tumour cell line growth inhibition, 48 h
[1] = test system: ACHN renal
[2] = test system: SW-620 colon
[3] = test system: UO-31 renal
[4] = test system: MOLT-4 leukemia
[5] = test system: SF-268 CNS
[6] = test system: U251 CNS
[7] = test system: HT29 colon
[8] = test system: A498 renal
[9] = test system: SN12C renal
[10] = test system: IGROV1 ovarian
[11] = test system: CAKI-1 renal
[12] = test system: SF-295 CNS
[13] = test system: NCI-H460 lung
[14] = test system: HOP-62 NSCLC
[15] = test system: RXF 393 renal
[16] = test system: UACC-257 melanoma
[17] = test system: SNB-75 CNS
[18] = test system: PC-3 prostate
[19] = test system: DU-145 prostate
[20] = test system: HCT-116 colon
[21] = test system: NCI-H226 lung
[22] = test system: RPMI-8226 leukemia
[23] = test system: UACC-62 melanoma
[24] = test system: HOP-92 NSCLC
[25] = test system: SR leukemia
[26] = test system: SK-MEL-28 melanoma
[27] = test system: HCT-15 colon
[28] = test system: EKVX NSCLC
[29] = test system: OVCAR-8 ovarian

`Cn1ccnc1C(=O)/C=C/c1ccc(CNC(=O)c2ccc(F)cc2)cc1` gave a GI50 [1] of 4.17 µM, a TGI [1] of 8.72 µM and a GI50 [2] of 2770 nM. The TGI [2] was 8.72 µM, the GI50 [3] was 2630 nM and the TGI [3] was 6.19 µM. It also gave a GI50 [4] of 5.03 µM, a TGI [4] of 15.8 µM and a GI50 [5] of 2980 nM. It also gave a TGI [5] of 9.42 µM, a GI50 [6] of 2350 nM and a TGI [6] of 6.7 µM. For the same compound, the GI50 [7] was 2980 nM, the TGI [7] was 7.36 µM and the GI50 [8] was 3.35 µM. It also gave a TGI [8] of 6.79 µM, a GI50 [9] of 6.67 µM and a TGI [9] greater than 25 µM. It also gave a GI50 [10] of 3.03 µM, a TGI [10] of 12.1 µM and a GI50 [11] of 2360 nM. For the same compound, the TGI [11] was greater than 25 µM, the GI50 [12] was 9.12 µM and the TGI [12] was greater than 25 µM. It also gave a GI50 [13] of 3.4 µM, a TGI [13] of 10.5 µM and a GI50 [14] of 3.69 µM. For the same compound, the TGI [14] was 12.5 µM, the GI50 [15] was 3.11 µM and the TGI [15] was 7.27 µM. It also gave a GI50 [16] of 5.52 µM, a TGI [16] of 19.2 µM and a GI50 [17] of 2500 nM. It also gave a TGI [17] greater than 25 µM, a GI50 [18] of 3.87 µM and a TGI [18] of 10.8 µM. The GI50 [19] was 1500 nM, the TGI [19] was 4.89 µM and the GI50 [20] was 3.46 µM. The TGI [20] was 8.47 µM, the GI50 [21] was 6.9 µM and the TGI [21] was greater than 25 µM. For the same compound, the GI50 [22] was 1010 nM, the TGI [22] was 5.98 µM and the GI50 [23] was 4.26 µM. For the same compound, the TGI [23] was 9.47 µM, the GI50 [24] was 5.32 µM and the TGI [24] was 24.7 µM. For the same compound, the GI50 [25] was 792 nM, the TGI [25] was greater than 25 µM and the GI50 [26] was 4.82 µM. The TGI [26] was 11.6 µM, the GI50 [27] was 1900 nM and the TGI [27] was greater than 25 µM. It also gave a GI50 [28] of 10.4 µM, a TGI [28] greater than 25 µM and a GI50 [29] of 6.62 µM.
